Assay results published in patent US4931429A, “α-aminoacyl β-aminoacyl aminodiols as anti-hypertensive agents” (G. D. Searle & Co., priority 1987, dated 1990).

What was measured:
[1] = molecular target: T1, Human renin (Homo sapiens, UniProt P00797); assay: human renin inhibition test; assay type: biochemical; conditions: human plasma substrate, pH 7.4, two hours at 37° C., angiotensin I by radioimmunoassay
T1 construct: purchased National Institute for Biological Standards, London
T1 sequence (P00797 67-406): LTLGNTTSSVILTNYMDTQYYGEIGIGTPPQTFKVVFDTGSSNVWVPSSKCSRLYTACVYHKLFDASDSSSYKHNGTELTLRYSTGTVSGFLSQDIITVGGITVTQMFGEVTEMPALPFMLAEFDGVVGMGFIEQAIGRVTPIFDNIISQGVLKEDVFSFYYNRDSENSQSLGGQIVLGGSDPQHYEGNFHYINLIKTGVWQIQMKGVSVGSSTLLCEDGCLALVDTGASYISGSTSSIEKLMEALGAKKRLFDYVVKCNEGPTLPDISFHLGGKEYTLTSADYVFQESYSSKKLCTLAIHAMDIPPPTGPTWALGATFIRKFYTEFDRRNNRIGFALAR
Experimental: The human renin inhibition test has been previously described in detail in papaioannou, et al. (1985) Clinical and Experimental Hypertension A7(9), 1243-1257. Human renin was obtained from the National Institute for Biological Standards, London. In a total volume of 0.25 mL 100 mM Tris-acetate buffer at pH 7.4, 25 x 10-6 Goldblatt units of renin, 0.05 mL of plasma from human volunteers taking oral contraceptives, 6.0 mM sodium EDTA, 2.4 mM phenylmethyl sulfonyl fluoride, 1.5 mM 8-hydroxyquinoline, 0.4 mg/mL BSA, and 0.024 mg/mL neomycin sulfate were incubated for two hours at 37° C. in the presence or absence of renin inhibitors. The produced angiotensin I was determined by radioimmunoassay (New England Nuclear kit). Compounds of Formula I to be assayed were solubilized in either ethyl alcohol or DMSO and diluted with 100 mM Tris-acetate buffer at pH 7.4 to the appropriate concentration. The final concentration of organic solvent in the reaction mixture was less than 1%. Control incubations at 37° C. were used to correct for effects of organic solvent on renin activity.

[2] = tested on: Hog renin; assay: hog renin inhibition assay; assay type: biochemical; conditions: synthetic tetradecapeptide substrate, pH 7.4, one hour at 37° C., angiotensin I by radioimmunoassay
Experimental: The hog renin inhibition assay was performed in a manner similar to the human renin assay, with the following modifications. Hog renin was purchased from Sigma Chemical Co. and the synthetic tetradecapeptide substrate was obtained from Peninsula Labs Inc. In a final volume of 0.25 mL 100 mM Tris-acetate buffer at pH 7.4, 0.125m units hog renin, 20 micromolar tetradecapetide, 6 mM disodium EDTA, 3.2 mM phenylmethyl sulfonyl fluoride, 3 mM 8-hydroxyquinoline, 1.2 mg/mL BSA and 0.024 mg/mL neomycin sulfate were incubated for one hour at 37° C. in the presence or absence of renin inhibitors. The amount of angiotensin I produced was determined as for the human renin inhibition assay.

| Compound | IC50 [1] | IC50 [2] |
| --- | --- | --- |
| CC(CNC(=O)[C@H](Cc1ccccc1)NC(=O)OC(C)(C)C)C(=O)N[C@@H](CC1CCCCC1)[C@@H](O)CO (stereo partly drawn) [Example 8, Boc-L-phenylalaninyl-D,L-α-methyl-β-alaninamide of (2S,3R)-2-amino-1-cylohexyl-3,4-dihydroxybutane] | 2000 nM | 2100 nM |
| CC(C)C[C@H](O)[C@H](O)[C@H](CC1CCCCC1)NC(=O)C(C)CNC(=O)[C@H](Cc1ccccc1)NC(=O)OC(C)(C)C (stereo partly drawn) [Example 9, Boc-L-phenylalaninyl-D,L-α-methyl-β-alaninamide of (2S,3R,4S)-2-amino-1-cyclohexyl-3,4-dihydroxy-6-methylheptane] | 210 nM | 12.5 nM |
